Source: patent US20260317367A1, “SALTS INCLUDING CRYSTALLINE SALTS OF 25-HYDROXY-CHOLEST-5-EN-3-SULFATE AND METHODS FOR PREPARING SAME” (Durect Corporation, priority 2022, published 2026)
“Also recorded” adds a separate entry of the source. Structures can show the parent of a compound that is named as a salt.

How the values were obtained:
Format in all cases: physicochemical
[1] = Solid-state chemical stability of 25HC3S salts at 2-8° C., 60° C. and 80° C. (HPLC assay and degradation products); details: for % Impurities, Total / % Impurities, 25-HC: ND = Not Detected; for % Impurities, 25-HC: 25-Hydroxy-Cholesterol; for Physical and chemical solid-state stability (comments): listed as 25HC3S Hydroxyethylammonium
Summary of the method: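 Crystalline 25HC3S salts (~25 mg powder per vial) stored at 2-8° C. or 80° C., pulled at 3 and 6 weeks; some 3-week 2-8° C. vials moved to 60° C. for 1 week. Dissolved in 100% methanol (sonication/vortexing, centrifugation or dilution), then HPLC against 25HC3S sodium standards (0.75-1.25 mg/mL) for assay and degradants.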

[2] = Appearance (color, clumping, flowability) of stored 25HC3S salts; details: for Appearance: listed as 25HC3S hydroxyethylammonium
[3] = Overall rank order of powder flowability (angle of repose and Hausner ratio); details: for Powder flowability, overall (in words): angle of repose and compressibility index/Hausner ratio combined
Text: Table C5 was generated by adding the relative rank order of the 25HC3S salts for angle of repose and Hausner ratio results, and creating an Over All Rank Order of the salts powder flowability. The salts with the lower overall rank order score had better powder flowability.

[4] = Final pH of the solubility sample solutions in aqueous media
Summary of the method: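 Undiluted HPLC assay of centrifuged (12000 rpm, 12–15 min) supernatants from aqueous 25HC3S salt suspensions. These suspensions were kept with excess solid and shaken one day at room temperature, 210 motions/min.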

[5] = Hausner ratio and compressibility index of 25HC3S salts; details: listed as 25HC3S hydroxyethylammonium
Summary of the method: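 Powder poured into a 5 mL graduated cylinder to about 5.0 mL (Vo), tapped 200 then 100 more times on a hard surface; final volume Vf recorded after 300 taps. Compressibility index and Hausner ratio calculated from Vo and Vf; flow character classed per USP <1174>.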

[6] = Solubility of 25HC3S salts after one day at room temperature (HPLC, as free acid); details: one day
Summary of the method: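 HPLC quantified the clear supernatant after centrifugation, with organic-solvent samples diluted in water:MeOH 95:5 and aqueous ones undiluted; results are mg/mL as free acid (LOD 0.0007 mg/mL). Each salt was first equilibrated as a suspension with excess solid for one day on a room-temperature shaker.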

[7] = 2-8° C., 3 wk, listed as 25HC3S hydroxyethylammonium
[8] = 60° C., 1 wk, listed as 25HC3S hydroxyethylammonium
[9] = rank, lower is better flow, listed as 25HC3S hydroxyethylammonium

CC(CCCC(C)(C)O)C1CCC2C3CC=C4CC(OS(=O)(=O)O)CCC4(C)C3CCC12C (centres unmarked) [Salt #5]
Assay ([1]; 2-8° C., 3 wk, 30240 min, listed as 25HC3S hydroxyethylammonium): 91.9 % w/w | % Impurities, Total [1, 7]: 3.1% | Overall physical and chemical stability (in words) ([1]; 2-8° C., 60° C., 80° C.): least stable organic salt; also recorded: least physically and chemically stable | % Impurities, 25-HC [1, 7]: 1.2% | % Impurities, 25-HC [1, 8]: 11.3% | Physical and chemical solid-state stability (comments) ([1]; 60° C., 1 week): Totally decomposed after 1 week at 60 °C and after 3 weeks at 80 °C | Assay ([1]; 60° C., 1 wk (after 3 weeks at 2-8° C.), 10080 min, listed as 25HC3S hydroxyethylammonium, 10080 min): 0.0 % w/w | % Recovery of 2-8° C./3 wk vs 60° C./1 wk ([1]; 60° C., 1 wk, 10080 min, listed as 25HC3S hydroxyethylammonium): 0.0% | % Impurities, Total [1, 8]: 99.7% | Physical and chemical solid-state stability (comments) ([1]; 80° C., 3 weeks): Totally decomposed after 1 week at 60 °C and after 3 weeks at 80 °C | % Recovery ([1]; 80° C., 3 wk, vs 2-8° C., 30240 min, listed as 25HC3S hydroxyethylammonium, 30240 min): 0.0% | Assay ([1]; 80° C., 3 wk, 30240 min, listed as 25HC3S hydroxyethylammonium): 0.0 % w/w | % Impurities, Total ([1]; 80° C., 3 wk, listed as 25HC3S hydroxyethylammonium): 100.1% | Stability after 1 week at 60° C. (in words) ([1]; solid state, 60° C., 1 week (after 3 weeks at 2-8° C.)): totally decomposed | Stability after 3 weeks at 80° C. (in words) ([1]; solid state, 80° C., 3 weeks): totally decomposed | Appearance ([2]; 2-8° C., 3 wk): White, free flowing powder, no clumping | Appearance ([2]; 60° C., 1 wk (after 3 weeks at 2-8° C.)): Light brown, partially melted material | Appearance after 3 weeks at 80° C. ([2]; 80° C., 3 weeks): completely burned | Appearance ([2]; 80° C., 3 wk): Dark brown, partially melted material | Powder flowability, overall (in words) ([3]; listed as crystalline 25HC3S hydroxyethylammonium): relatively good flowability | Powder flowability, overall (in words) ([3]; listed as hydroxyethylammonium): top three | Angle of Repose Rank Order [3, 9]: 1 | Hausner Ratio Rank Order [3, 9]: 1 | Overall Rank Order (Total Score) ([3]; sum of both ranks, lower is better flow, listed as 25HC3S hydroxyethylammonium): 2 | pH of the solubility sample, 0.9% Sodium Chloride ([4]; 0.9% sodium chloride (blank 5.8), listed as 25HC3S hydroxyethylammonium): 8.2 | pH of the solubility sample, 5% Dextrose ([4]; 5% dextrose (blank 4.7), listed as 25HC3S hydroxyethylammonium): 7.0 | pH of the solubility sample, FaSSGF ([4]; FaSSGF (blank 1.5, 1.6)): 1.6 | pH of the solubility sample, FaSSIF ([4]; FaSSIF (blank 6.5, 6.5)): 6.6 | pH of the solubility sample, FeSSIF ([4]; FeSSIF (blank 4.9, 5.0)): 5.0 | pH of the solubility sample, Water ([4]; water (blank 6.3), listed as 25HC3S hydroxyethylammonium): 8.6 | Compressibility Index ([5]; Table C3 heads this index in %): 18 | Hausner Ratio [5]: 1.22 | solubility at 24 h ([6]; 0.9% nacl, room temperature, as free acid, ND = not detected, detection limit 0.7 μg/mL, read-out: Solubility in 0.9% NaCl): 2 µg/mL | Solubility in 5% Dextrose ([6]; 5% dextrose, room temperature, as free acid, ND = not detected, detection limit 0.7 μg/mL, 1440 min, listed as 25HC3S hydroxyethylammonium): 45 µg/mL | Solubility in FaSSGF (in words) ([6]; FaSSGF, room temperature, listed as crystalline 25HC3S hydroxyethylammonium): low solubility | Solubility in FaSSIF ([6]; FaSSIF, room temperature, as free acid, 1440 min, listed as 25HC3S hydroxyethylammonium): 107 µg/mL | Solubility in FaSSGF ([6]; Fasted State Simulated Gastric Fluid, pH 1.6, room temperature, as free acid, LOD 0.0007 mg/mL): no solubilized drug was detected | Solubility in FeSSIF ([6]; FeSSIF, room temperature, as free acid, 1440 min, listed as 25HC3S hydroxyethylammonium): 718 µg/mL | Solubility in methanol (in words) ([6]; MeOH, room temperature): did not reach saturation | Solubility in ACN ([6]; acetonitrile, room temperature, as free acid, 1440 min, listed as 25HC3S hydroxyethylammonium): 200 µg/mL | Solubility in EtOH ([6]; ethanol, room temperature, as free acid, ≥ = did not reach saturation, 1440 min, listed as 25HC3S hydroxyethylammonium): ≥22000 µg/mL | Solubility in IPA ([6]; isopropyl alcohol, room temperature, as free acid, 1440 min, listed as 25HC3S hydroxyethylammonium): 3700 µg/mL | Solubility in MeOH ([6]; methanol, room temperature, as free acid, ≥ = did not reach saturation, 1440 min, listed as 25HC3S hydroxyethylammonium): ≥47000 µg/mL | Solubility in H2O ([6]; water, room temperature, as free acid, ND = not detected, detection limit 0.7 μg/mL, 1440 min, listed as 25HC3S hydroxyethylammonium): 43 µg/mL
